# Laboratory results published in article PMC9636434, “Discovery of small molecule agonists of the Relaxin Family Peptide Receptor 2” (Communications Biology, 2022).
# Several values for one entry are separate records, joined by “and”; a condition that tells them apart may be missing. Equal values may be shown once. Read-outs that look alike come from different tables or passages of the source.
# Assays:
# [1] = biological target: T1, human ADORA1 (Homo sapiens, UniProt P30542); test: PRESTO-Tango β-arrestin recruitment, ADORA1 transfected HTLA cells; assay type: cell-based; settings: for RLU: replicates (1)-(4)
# T1 sequence (P30542 1-326): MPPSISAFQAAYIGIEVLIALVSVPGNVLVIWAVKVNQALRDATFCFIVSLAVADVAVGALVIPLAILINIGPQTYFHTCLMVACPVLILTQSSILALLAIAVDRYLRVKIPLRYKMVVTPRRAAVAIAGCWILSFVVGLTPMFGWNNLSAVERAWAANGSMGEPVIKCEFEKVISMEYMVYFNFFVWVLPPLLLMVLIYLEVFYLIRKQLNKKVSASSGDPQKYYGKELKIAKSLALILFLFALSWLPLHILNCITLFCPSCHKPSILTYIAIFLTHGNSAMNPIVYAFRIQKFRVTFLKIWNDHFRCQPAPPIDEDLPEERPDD
# [2] = biological target: RXFP2 (Homo sapiens, UniProt Q8WXD0); test: INSL3 allosteric modulation experiment, HTRF cAMP, co-treatment 6641 and INSL3; assay type: cell-based; set-up: FLAG (N); expressed in transfected cells; settings: for % Eff: 6641 alone, replicates (1)-(3)
# Chain of RXFP2 (Q8WXD0 whole entry): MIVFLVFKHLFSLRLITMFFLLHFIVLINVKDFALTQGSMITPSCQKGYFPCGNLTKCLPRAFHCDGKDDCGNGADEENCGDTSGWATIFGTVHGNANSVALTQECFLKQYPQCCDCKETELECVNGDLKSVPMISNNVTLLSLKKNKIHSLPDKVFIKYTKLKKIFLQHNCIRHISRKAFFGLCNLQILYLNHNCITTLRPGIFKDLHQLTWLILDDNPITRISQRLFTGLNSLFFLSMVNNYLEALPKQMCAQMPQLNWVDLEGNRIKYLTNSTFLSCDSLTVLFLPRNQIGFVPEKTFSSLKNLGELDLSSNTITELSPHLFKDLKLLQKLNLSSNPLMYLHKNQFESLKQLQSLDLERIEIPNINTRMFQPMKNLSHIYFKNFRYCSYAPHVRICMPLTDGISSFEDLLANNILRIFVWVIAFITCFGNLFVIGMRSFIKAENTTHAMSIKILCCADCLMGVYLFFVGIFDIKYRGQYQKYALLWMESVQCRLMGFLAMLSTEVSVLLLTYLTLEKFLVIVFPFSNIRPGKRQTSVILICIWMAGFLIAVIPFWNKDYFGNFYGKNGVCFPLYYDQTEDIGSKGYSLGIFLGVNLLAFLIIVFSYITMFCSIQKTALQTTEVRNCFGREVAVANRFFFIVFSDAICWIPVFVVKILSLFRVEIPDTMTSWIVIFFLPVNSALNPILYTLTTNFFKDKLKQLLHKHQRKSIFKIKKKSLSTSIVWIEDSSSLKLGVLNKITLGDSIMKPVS
# Text: We have further analyzed the effect of simultaneous activation of human RXFP2 with 6641 and INSL3 to evaluate possible allosteric modulation of INSL3 cAMP signaling by the small molecule (Supplementary Fig. 8).
# The HTRF Gs dynamic cAMP assay kit (CisBio, Bedford, MA) was used to measure intracellular cAMP accumulation in HEK293T cells (ATCC, Manassas, VA)[56]. […] The cell stock was verified mycoplasma free and authenticated by ATCC. Transient transfection was accomplished by treating cells in a 6-well plate with a mixture of 2 μg plasmid and 6 μL Lipofectamine 2000 (Invitrogen, Waltham, MA) per manufacturer’s protocol and incubating overnight. For cAMP measurement in 96-well format, HEK293T cells stably transfected with human RXFP2 (HEK-RXFP2), human RXFP1 (HEK-RXFP1), mouse Rxfp1 (HEK-Rxfp1) or transiently transfected with human RXFP1-RXFP2 chimeric receptors were seeded between 7500 and 30,000 cells per well, depending on cell line responsiveness, in serum-free DMEM medium and incubated overnight at 37 °C, 5% CO2. After 18 h, cells were treated with a titration of compound, 2 μM forskolin, or DMSO vehicle. Control wells were also treated with a titration of INSL3 (Phoenix Pharmaceuticals, Burlingame, CA) or human recombinant relaxin 2 (Peprotech, Cranbury, NJ). For the RXFP2 antagonist experiment, cells were co-treated with 0.28 μM compound or 30 nM INSL3 and a titration of the INSL3 B dimer antagonist[38],[39]. For the INSL3 allosteric modulation experiment, cells were co-treated with 0.025, 0.0025, or 0.00025 μM of compound and a titration of INSL3. Cells were incubated for 1 h at 37 °C, 5% CO2, and then kit cAMP-d2 and anti-cAMP antibody were added per manufacturer protocol. Plates were incubated for 1 h at room temperature and the signal was read on a CLARIOstar plate reader (BMG Labtech, Ortenberg, Germany) at 665 and 620 nm emission wavelengths.
# cAMP response in HEK293T cells expressing human RXFP2 was measured by HTRF
# assay after treatment with a titration of INSL3 and suboptimal concentrations of 6641.
# Results are expressed as mean ± SEM of 3 independent experiments.
# (1 picture or pasted object on this page, not shown here)
# [3] = Pharmacokinetic study, single 30 mg/kg IP dose, plasma, liver and bone; assay type: in vivo, mouse; set-up: levels in plasma, liver, and bone: scale not given here; settings: for Bone concentration / Liver concentration / Plasma concentration / concentration at 2 h / concentration at 12 h / concentration at 0.083 h / concentration at 0.25 h / concentration at 1 h: IP
# Procedure: The concentration of compound in plasma, liver, and long bones was detected using liquid chromatography tandem mass spectrometry (LC-MS/MS). Samples were collected after a single intraperitoneal (IP) administration at 30 mg/kg, a single intravenous (IV) administration at 3 mg/kg, a single oral (PO) administration at 10 mg/kg, and a daily PO administration for 3 consecutive days at 10 mg/kg. The compound was formulated in 75% PEG300 + 25% of 40% aq. HPBCD for IV and PO administration and in 60% Phosal + 40% PEG300 for IP administration. All tissue samples were homogenized in water at a tissue weight to water volume ratio 1:3.
# single dose IP administration. a Plasma, b liver and c bone profiles in female mice.
# The actual concentration (ng/g) is the detected value (ng/mL) multiplied by 4. Drug
# vehicle is 60% Phosal : 40% PEG300. 3 mice were used per time point. Results are
# expressed as the mean ± SEM.
# [4] = follow-up test using multiple compound concentrations
# [5] = Time 0.083 h, individual values (1)-(3)
# [6] = Time 0.25 h, individual values (1)-(3)
# [7] = Time 0.5 h, individual values (1)-(3)
# [8] = Time 1 h, individual values (1)-(3)
# [9] = Time 2 h, individual values (1)-(3)
# [10] = Time 4 h, individual values (1)-(3)
# [11] = Time 8 h, individual values (1)-(3)
# [12] = Time 12 h, individual values (1)-(3)
# [13] = single 30 mg/kg IP, female mice
compound,measurement,setting,value
O=C1Nc2ccc(-c3cc(C(F)(F)F)cc(C(F)(F)F)c3)cc2C(=O)N2CCN(C(=O)COc3ccc(OC(F)(F)F)cc3I)C[C@@H]12 [compound 6641],"β-arrestin recruitment, ADORA1 (mean ± SEM)","[1]; 10 µM compound, basal level of detection 3-fold RLU",3.92 ± 0.15 fold RLU
same,RLU,[1]; Log [M] -4.52,12779.2 RLU and 12694.9 RLU
same,RLU,[1]; Log [M] -5,11730.3 RLU and 10165.7 RLU and 11306.6 RLU
same,RLU,[1]; Log [M] -5.52,8500.46 RLU and 7004.94 RLU and 7182.3 RLU and 7062.97 RLU
same,RLU,[1]; Log [M] -6,6700.59 RLU and 4967.56 RLU and 5863.08 RLU and 4072.06 RLU
same,RLU,[1]; Log [M] -6.52,3400.99 RLU and 2989.38 RLU and 3675.77 RLU and 3380.19 RLU
same,RLU,[1]; Log [M] -7,3045.21 RLU and 3372.53 RLU and 2679.57 RLU and 3462.3 RLU
same,RLU,[1]; Log [M] -7.52,2808.75 RLU and 2538.36 RLU and 2762.77 RLU and 2945.59 RLU
same,RLU,[1]; Log [M] -8,3154.68 RLU and 2602.94 RLU and 3418.51 RLU and 3449.16 RLU
same,RLU,[1]; Log [M] -8.52,2742.95 RLU and 3614.63 RLU and 3319.34 RLU and 3617.47 RLU
same,RLU,[1]; Log [M] -9,3242.68 RLU and 2896.28 RLU and 3413.04 RLU and 3315.08 RLU
same,RLU,[1]; Log [M] -9.52,3821.91 RLU and 2910.47 RLU and 2806.84 RLU and 4087.39 RLU
same,RLU,[1]; Log [M] -10,2500.19 RLU and 3249.78 RLU and 3509.58 RLU and 3875.86 RLU
same,RLU,[1]; Log [M] -10.52,3874.43 RLU and 2887.76 RLU and 2717.4 RLU and 3465.57 RLU
same,RLU,[1]; Log [M] -11,3657.22 RLU and 3613.21 RLU and 3589.08 RLU and 3231.32 RLU
same,RLU,[1]; Log [M] -11.52,2119.72 RLU and 4131.4 RLU and 3244.1 RLU and 3141.88 RLU
same,RLU,[1]; Log [M] -12,3765.12 RLU and 3810.55 RLU and 4489.16 RLU and 3752.34 RLU
same,ADORA1 β-arrestin efficacy compared with NECA,[1]; [4],much lower efficacy
same,concentrations at which ADORA1 responded (β-arrestin),[1]; [4],above 1 µM
same,effect of co-stimulation with INSL3 on cAMP production,"[2]; 0.025, 0.0025 or 0.00025 μM compound and titration of INSL3",simple additive effect
same,% Eff,[2]; Log [M] -4.60,75.1113% and 97.1676% and 94.1213%
same,% Eff,[2]; Log [M] -5.60,93.2943% and 114.987% and 113.554%
same,% Eff,[2]; Log [M] -6.60,74.6686% and 120.861% and 97.4942%
same,% Eff,[2]; Log [M] -7.60,50.914% and 51.0623% and 52.8348%
same,% Eff,[2]; Log [M] -8.60,8.681% and 8.081% and 10.3062%
same,% Eff,[2]; Log [M] -9.60,0.2079% and -1.122% and -1.231%
same,Bone concentration,[3]; [5],307 ng/g and 205 ng/g and 624 ng/g
same,Liver concentration,[3]; [5],1132 ng/g and 1016 ng/g
same,Plasma concentration,[3]; [5],42.7 ng/mL and 44.4 ng/mL
same,Bone concentration,[3]; [6],618 ng/g and 42.7 ng/g and 69 ng/g
same,Liver concentration,[3]; [6],1852 ng/g and 1212 ng/g
same,Plasma concentration,[3]; [6],135 ng/mL and 133 ng/mL
same,Bone concentration,[3]; [7],79.8 ng/g and 96 ng/g and 167 ng/g
same,Liver concentration,[3]; [7],2324 ng/g and 2784 ng/g
same,Plasma concentration,[3]; [7],259 ng/mL and 440 ng/mL
same,Bone concentration,[3]; [8],204 ng/g and 273 ng/g and 532 ng/g
same,Liver concentration,[3]; [8],4720 ng/g and 3880 ng/g
same,Plasma concentration,[3]; [8],507 ng/mL and 673 ng/mL
same,Bone concentration,[3]; [9],346 ng/g and 472 ng/g
same,Liver concentration,[3]; [9],10000 ng/g and 4520 ng/g and 5600 ng/g
same,Plasma concentration,[3]; [9],819 ng/mL and 1140 ng/mL
same,Bone concentration,[3]; [10],708 ng/g and 1566 ng/g and 1740 ng/g
same,Liver concentration,[3]; [10],15760 ng/g and 16960 ng/g
same,Plasma concentration,[3]; [10],2340 ng/mL and 4780 ng/mL and 5300 ng/mL
same,Bone concentration,[3]; [11],3162 ng/g and 948 ng/g and 3258 ng/g
same,Liver concentration,[3]; [11],19080 ng/g and 9320 ng/g and 24920 ng/g
same,Plasma concentration,[3]; [11],3040 ng/mL and 3010 ng/mL
same,Bone concentration,[3]; [12],1716 ng/g and 1458 ng/g
same,Liver concentration,[3]; [12],18480 ng/g and 15600 ng/g
same,Plasma concentration,[3]; [12],3930 ng/mL and 2630 ng/mL
same,concentration at 2 h,"[3]; female, C57BL/6 J, mouse, bone, ip, 30 mg/kg, Time 2 h, individual values (1)-(3), read-out: Bone concentration",492 ng/g
same,concentration at 12 h,"[3]; female, C57BL/6J, mouse, bone, ip, 30 mg/kg, Time 12 h, individual values (1)-(3), read-out: Bone concentration",2830 ng/g
same,concentration at 0.083 h,"[3]; female, C57BL/6J, mouse, liver, ip, 30 mg/kg, Time 0.083 h, individual values (1)-(3), read-out: Liver concentration",1060 ng/g
same,concentration at 0.25 h,"[3]; female, C57BL/6J, mouse, liver, ip, 30 mg/kg, Time 0.25 h, individual values (1)-(3), read-out: Liver concentration",1800 ng/g
same,concentration at 1 h,"[3]; female, C57BL/6J, mouse, liver, ip, 30 mg/kg, Time 1 h, individual values (1)-(3), read-out: Liver concentration",4920 ng/g
same,concentration at 12 h,"[3]; female, C57BL/6J, mouse, liver, ip, 30 mg/kg, Time 12 h, individual values (1)-(3), read-out: Liver concentration",13600 ng/g
same,concentration at 0.5 h,"[3]; female, C57BL/6J, mouse, liver, ip, 30 mg/kg, Time 0.5 h, individual values (1)-(3)",3040 ng/g
same,concentration at 4 h,"[3]; female, C57BL/6J, mouse, liver, ip, 30 mg/kg, Time 4 h, individual values (1)-(3)",11000 ng/g
same,concentration at 0.083 h,"[3]; female, C57BL/6J, mouse, plasma, ip, 30 mg/kg, Time 0.083 h, individual values (1)-(3), read-out: Plasma concentration",60.9 ng/mL
same,concentration at 0.25 h,"[3]; female, C57BL/6J, mouse, plasma, ip, 30 mg/kg, Time 0.25 h, individual values (1)-(3), read-out: Plasma concentration",132 ng/mL
same,concentration at 1 h,"[3]; female, C57BL/6J, mouse, plasma, ip, 30 mg/kg, Time 1 h, individual values (1)-(3), read-out: Plasma concentration",627 ng/mL
same,concentration at 2 h,"[3]; female, C57BL/6J, mouse, plasma, ip, 30 mg/kg, Time 2 h, individual values (1)-(3), read-out: Plasma concentration",1160 ng/mL
same,concentration at 12 h,"[3]; female, C57BL/6J, mouse, plasma, ip, 30 mg/kg, Time 12 h, individual values (1)-(3), read-out: Plasma concentration",2750 ng/mL
same,concentration at 8 h,"[3]; female, C57BL/6J, mouse, plasma, ip, 30 mg/kg, Time 8 h, individual values (1)-(3)",2190 ng/mL
same,"duration of stable levels in plasma, liver, and bone",[3]; [13],at least 12 h
same,"levels in plasma, liver, and bone",[3]; [13],single/double digit
